The source of these data is US20090137569A1, “Administration of (3S)-N-hydroxy-4-(sulfonyl)-2,2-dimethyl-3-thiomorpholine carboxamide or (S)-N_hydroxy-4-[4_(but-2-ynyloxy)phenylsulfonyl]-2,2-dimethyl thimomorpholine-3-carboxamide for preventing and/or treating inflammatory skin pathologies/afflictions” (GALDERMA RESEARCH & DEVELOPMENT, priority 2007, published 2009).

This assay deals with TPA-induced mouse ear edema. Nature of the assay: TPA-induced mouse ear edema test, single topical application. The format is in vivo. The note with it: Balb/c mice. How it is done:
Evaluation of the Anti-Inflammatory Activity of Apratastat after a Single Topical Application in the TPA-Induced Mouse Ear Edema Test on Balb/c Mice (TPA=Tetradecanoylphorbol Acetate)
Edema is induced by single application of 20 μl of TPA dissolved in acetone at 0.01%.
The test compound is diluted in a TPA solution and applied at a concentration of 0.1%, 0.3% to 1%.
A positive control, betamethasone valerate (VdB), is also tested.
The thickness of the mouse ear is measured at T+6 h.

Take `CC1(C)SCCN(S(=O)(=O)c2ccc(OCC#CCO)cc2)[C@H]1C(=O)NO` [Apratastat, (3S)—N-hydroxy-4-({4-[(4-hydroxy-2-butynyl)oxy]phenyl}sulfonyl)-2,2-dimethyl-3-thiomorpholinecarboxamide]: the “reduction of the edema of the ear induced by TPA” value by setting is: (single topical application at 0.1% in TPA solution, ear thickness at T+6 h, NS) 25%; (single topical application at 0.3% in TPA solution, ear thickness at T+6 h, **) 47%; (single topical application at 1% in TPA solution, ear thickness at T+6 h, **) 49%. Also, the “anti-inflammatory effect (in words)” value (single topical application, 0.1% to 1%, TPA-induced ear edema) is given as “dose-dependent anti-inflammatory effect”.

For `CCCCC(=O)O[C@]1(C(=O)CO)[C@@H](C)C[C@H]2[C@@H]3CCC4=CC(=O)C=C[C@]4(C)[C@@]3(F)[C@@H](O)C[C@@]21C` [betamethasone valerate, reference compound], the “reduction in the edema of the ear” value (single topical application at 0.01%, diluted in TPA solution, ear thickness at T+6 h) stood at 93%.
